Measured values published in patent US20240246964A1 (Arbutus Biopharma Corporation, priority 2021, published 2024).

Target: human PD-L1 (Homo sapiens (Human), UniProt Q9NZQ7)
Assay: T cell activation luciferase reporter cell culture system (T Cell Activation Assay)
Assay type: cell-based
Conditions: luciferase reporter assay; PD-L1 aAPC/CHO-K1 cells with PD-1 effector Jurkat T cells

Chain of human PD-L1 (Q9NZQ7 19-290): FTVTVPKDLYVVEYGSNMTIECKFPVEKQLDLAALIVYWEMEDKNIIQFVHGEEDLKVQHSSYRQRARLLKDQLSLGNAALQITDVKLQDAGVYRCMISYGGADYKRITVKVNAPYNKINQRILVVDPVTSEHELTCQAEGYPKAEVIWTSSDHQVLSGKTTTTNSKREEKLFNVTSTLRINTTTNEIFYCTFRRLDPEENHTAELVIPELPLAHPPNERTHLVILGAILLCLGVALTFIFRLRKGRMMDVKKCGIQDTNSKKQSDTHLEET

SMILES	EC50 [nM]
COc1cc(-c2nccc(-c3cccc(-c4ccc(CNC5CCN(C(=O)C(C)C)CC5)c(OC)n4)c3Cl)c2Cl)cc(F)c1CNC1CCN(C(=O)C(C)C)CC1 [Example 347, 1-(4-(((6-(2-Chloro-3-(3-chloro-2-(3-fluoro-4-(((1-isobutyrylpiperidin-4-yl)amino)methyl)-5-methoxyphenyl)pyridin-4-yl)phenyl)-2-methoxypyridin-3-yl)methyl)amino)piperidin-1-yl)-2-methylpropan-1-one]	69.6
COc1nc(-c2cccc(-c3ccnc(-c4cc(OC)c5nc(CN6CC(C(=O)O)C6)cn5c4)c3Cl)c2Cl)ccc1CNC[C@@H]1CCC(=O)N1 [Example 350, (S)-1-((6-(3-Chloro-4-(2-chloro-3-(6-methoxy-5-((((5-oxopyrrolidin-2-yl)methyl)amino)methyl)pyridin-2-yl)phenyl)pyridin-2-yl)-8-methoxyimidazo[1,2-a]pyridin-2-yl)methyl)azetidine-3-carboxylic acid]	89.2
COc1nc(-c2cccc(-c3ccnc(-c4cc(OC)c5nc(CNCCC6(C(=O)O)CC6)cn5c4)c3Cl)c2Cl)ccc1CNC[C@@H]1CCC(=O)N1 [Example 351, (S)-1-(2-(((6-(3-Chloro-4-(2-chloro-3-(6-methoxy-5-((((5-oxopyrrolidin-2-yl)methyl)amino)methyl)pyridin-2-yl)phenyl)pyridin-2-yl)-8-methoxyimidazo[1,2-a]pyridin-2-yl)methyl)amino)ethyl)cyclopropane-1-carboxylic acid]	146
COc1cc(-c2nccc(-c3cccc(-c4ccc(CNC5CCN(C(=O)C6CCC6)CC5)c(OC)n4)c3Cl)c2Cl)ccc1CNC1CCN(C(=O)C2CCC2)CC1 [Example 352, (4-(((6-(2-Chloro-3-(3-chloro-2-(4-(((1-(cyclobutanecarbonyl)piperidin-4-yl)amino)methyl)-3-methoxyphenyl)pyridin-4-yl)phenyl)-2-methoxypyridin-3-yl)methyl)amino)piperidin-1-yl)(cyclobutyl)methanone]	134
COc1cc(-c2nccc(-c3cccc(-c4ccc(CNC5CCN(C(C)=O)CC5)c(OC)n4)c3Cl)c2Cl)ccc1CN1CC2(CC(O)C2)C1 [Example 361, 1-(4-(((6-(2-Chloro-3-(3-chloro-2-(4-((6-hydroxy-2-azaspiro[3.3]heptan-2-yl)methyl)-3-methoxyphenyl)pyridin-4-yl)phenyl)-2-methoxypyridin-3-yl)methyl)amino)piperidin-1-yl)ethan-1-one]	40.5
CNCc1ccc(-c2nccc(-c3cccc(-c4ccc(CNC)c(OC)n4)c3C)c2C)cc1OC [Example 362, 1-(2-Methoxy-4-(4-(3-(6-methoxy-5-((methylamino)methyl)pyridin-2-yl)-2-methylphenyl)-3-methylpyridin-2-yl)phenyl)-N-methylmethanamine]	261
COc1cc(-c2nccc(-c3cccc(-c4ccc(CNC5CCN(C(C)=O)CC5)c(OC)n4)c3C)c2C)ccc1CNC1CCN(C(C)=O)CC1 [Example 363, 1-(4-(((6-(3-(2-(4-(((1-Acetylpiperidin-4-yl)amino)methyl)-3-methoxyphenyl)-3-methylpyridin-4-yl)-2-methylphenyl)-2-methoxypyridin-3-yl)methyl)amino)piperidin-1-yl)ethan-1-one]	400
COc1cc(-c2nccc(-c3cccc4c3CC[C@@H]4Nc3nc(OC)c(CN4CC5(CNC(=O)C5)C4)nc3C(F)(F)F)c2Cl)ccc1CN1CC2(CNC(=O)C2)C1 [Example 366, (S)-2-(4-(3-Chloro-4-(1-((6-methoxy-5-((7-oxo-2,6-diazaspiro[3.4]octan-2-yl)methyl)-3-(trifluoromethyl)pyrazin-2-yl)amino)-2,3-dihydro-1H-inden-4-yl)pyridin-2-yl)-2-methoxybenzyl)-2,6-diazaspiro[3.4]octan-7-one]	159
COc1cc(-c2nccc(-c3cccc4c3CC[C@@H]4Nc3nc(OC)c(CN4CC5(C4)CN(C(C)=O)C5)nc3C(F)(F)F)c2Cl)ccc1CN1CC2(C1)CN(C(C)=O)C2 [Example 367, (S)-1-(6-((5-((4-(2-(4-((6-Acetyl-2,6-diazaspiro[3.3]heptan-2-yl)methyl)-3-methoxyphenyl)-3-chloropyridin-4-yl)-2,3-dihydro-1H-inden-1-yl)amino)-3-methoxy-6-(trifluoromethyl)pyrazin-2-yl)methyl)-2,6-diazaspiro[3.3]heptan-2-yl)ethan-1-one]	412
COc1cc(-c2nccc(-c3cccc(-c4ccc(CN5CC6(C5)CN(C(C)=O)C6)c(OC)n4)c3Cl)c2C)ccc1CN1CC2(C1)CN(C(C)=O)C2 [Example 369, 1-(6-((6-(3-(2-(4-((6-Acetyl-2,6-diazaspiro[3.3]heptan-2-yl)methyl)-3-methoxyphenyl)-3-methylpyridin-4-yl)-2-chlorophenyl)-2-methoxypyridin-3-yl)methyl)-2,6-diazaspiro[3.3]heptan-2-yl)ethan-1-one]	369
COc1nc(-c2cccc(-c3ccnc(-c4cc(OC)c5nc(CN[C@H]6C[C@](C)(O)C6)nn5c4)c3Cl)c2Cl)ccc1CNC[C@@H]1CCC(=O)N1 [Example 370, (S)-5-((((6-(2-Chloro-3-(3-chloro-2-(2-((((1r,3r)-3-hydroxy-3-methylcyclobutyl)amino)methyl)-8-methoxy-[1,2,4]triazolo[1,5-a]pyridin-6-yl)pyridin-4-yl)phenyl)-2-methoxypyridin-3-yl)methyl)amino)methyl)pyrrolidin-2-one]	41.2

Results, then the compound that gave them:

EC50 [nM]	SMILES
28.9	COc1cc(-c2nccc(-c3cccc(-c4ccc(CNC5CCOCC5)c(OC)n4)c3Cl)c2Cl)cc(F)c1CNC1CCOCC1 [Example 348, N-((6-(2-Chloro-3-(3-chloro-2-(3-fluoro-5-methoxy-4-(((tetrahydro-2H-pyran-4-yl)amino)methyl)phenyl)pyridin-4-yl)phenyl)-2-methoxypyridin-3-yl)methyl)tetrahydro-2H-pyran-4-amine]
38.3	COc1cc(-c2nccc(-c3cccc(-c4ccc(CNC5CCS(=O)(=O)CC5)c(OC)n4)c3Cl)c2Cl)cc(F)c1CNC1CCS(=O)(=O)CC1 [Example 349, 4-(((6-(2-Chloro-3-(3-chloro-2-(4-(((1,1-dioxidotetrahydro-2H-thiopyran-4-yl)amino)methyl)-3-fluoro-5-methoxyphenyl)pyridin-4-yl)phenyl)-2-methoxypyridin-3-yl)methyl)amino)tetrahydro-2H-thiopyran 1,1-dioxide]
26.3	COc1cc(-c2nccc(-c3cccc(-c4ccc(CNC[C@H]5CCC(=O)N5)c(OC)n4)c3Cl)c2Cl)ccc1CNC[C@H]1CCC(=O)N1 [Example 354, (R)-5-((((6-(2-Chloro-3-(3-chloro-2-(3-methoxy-4-(((((R)-5-oxopyrrolidin-2-yl)methyl)amino)methyl)phenyl)pyridin-4-yl)phenyl)-2-methoxypyridin-3-yl)methyl)amino)methyl)pyrrolidin-2-one]
25.5	COc1cc(-c2nccc(-c3cccc(-c4ccc(CN5CCC(NC(C)=O)CC5)c(OC)n4)c3Cl)c2Cl)ccc1CNC[C@H]1CCC(=O)N1 [Example 356, (R)—N-(1-((6-(2-Chloro-3-(3-chloro-2-(3-methoxy-4-((((5-oxopyrrolidin-2-yl)methyl)amino)methyl)phenyl)pyridin-4-yl)phenyl)-2-methoxypyridin-3-yl)methyl)piperidin-4-yl)acetamide]
9.1	COc1cc(-c2nccc(-c3cccc(-c4ccc(CN5CCC(NC(C)=O)CC5)c(OC)n4)c3Cl)c2Cl)ccc1CNC[C@@H]1CCC(=O)N1 [Example 357, (S)—N-(1-((6-(2-Chloro-3-(3-chloro-2-(3-methoxy-4-((((5-oxopyrrolidin-2-yl)methyl)amino)methyl)phenyl)pyridin-4-yl)phenyl)-2-methoxypyridin-3-yl)methyl)piperidin-4-yl)acetamide]
40.4	COc1cc(-c2nccc(-c3cccc(-c4ccc(CNC5CC(=O)NC(=O)C5)c(OC)n4)c3Cl)c2Cl)ccc1CNC1CC(=O)NC(=O)C1 [Example 359, 4-(((6-(2-Chloro-3-(3-chloro-2-(4-(((2,6-dioxopiperidin-4-yl)amino)methyl)-3-methoxyphenyl)pyridin-4-yl)phenyl)-2-methoxypyridin-3-yl)methyl)amino)piperidine-2,6-dione]
31	COc1cc(-c2nccc(-c3cccc(-c4ccc(CNC5CCN(C(C)=O)CC5)c(OC)n4)c3Cl)c2Cl)ccc1CN[C@H]1CC[C@H](O)CC1 [Example 360, 1-(4-(((6-(2-Chloro-3-(3-chloro-2-(4-((((1r,4r)-4-hydroxycyclohexyl)amino)methyl)-3-methoxyphenyl)pyridin-4-yl)phenyl)-2-methoxypyridin-3-yl)methyl)amino)piperidin-1-yl)ethan-1-one]
28.5	COc1cc(-c2nccc(-c3cccc(-c4ccc(CN[C@H]5CC[C@H](O)CC5)c(OC)n4)c3Cl)c2Cl)ccc1CN[C@H]1CC[C@H](O)CC1 [Example 364, (1r,4r)-4-(((6-(2-Chloro-3-(3-chloro-2-(4-((((1r,4r)-4-hydroxycyclohexyl)amino)methyl)-3-methoxyphenyl)pyridin-4-yl)phenyl)-2-methoxypyridin-3-yl)methyl)amino)cyclohexan-1-ol]
19.9	COc1cc(-c2nccc(-c3cccc(-c4ccc(CNC5CC6(COC6)C5)c(OC)n4)c3Cl)c2Cl)ccc1CNC1CC2(COC2)C1 (stereo not drawn) [Example 365, N-(4-(4-(3-(5-(((2-Oxaspiro[3.3]heptan-6-yl)amino)methyl)-6-methoxypyridin-2-yl)-2-chlorophenyl)-3-chloropyridin-2-yl)-2-methoxybenzyl)-2-oxaspiro[3.3]heptan-6-amine]
37.4	COc1cc(-c2nccc(-c3cccc(-c4ccc(CN5CC6(CNC(=O)C6)C5)c(OC)n4)c3Cl)c2C)ccc1CN1CC2(CNC(=O)C2)C1 [Example 368, 2-((6-(2-Chloro-3-(2-(3-methoxy-4-((7-oxo-2,6-diazaspiro[3.4]octan-2-yl)methyl)phenyl)-3-methylpyridin-4-yl)phenyl)-2-methoxypyridin-3-yl)methyl)-2,6-diazaspiro[3.4]octan-7-one]
